Results reported in US20240360151A1 (SANOFI, priority 2023, published 2024).
pIC50: −log10 of the molar value.

Target: T1, NLRP3 inflammasome (Homo sapiens, UniProt Q96P20)
T1 construct: endogenous in cells; host or cells: THP-1 monocytic cells
Assay: IL-1β secretion assay (NLRP3 IC50) in LPS-primed, nigericin-activated THP-1 cells, HTRF
Type: cell-based
Details: monocytic THP-1 cells; LPS 10 ng/mL 3 h priming, then compound + nigericin 10 μM 2 h; relative IC50, 10 concentrations, geometric mean
Outline: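 IL-1β in supernatant read by HTRF after 2 h co-incubation of compound (0.1% DMSO, 10 concentrations, 1:3 series) with nigericin at 10 μM final, following 3 h LPS (10 ng/mL) priming of THP-1 monocytes at 37° C. Inhibition normalised to unactivated and no-compound controls; geometric-mean relative IC50 from 4-parameter logistic model.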

T1 sequence (Q96P20 whole entry): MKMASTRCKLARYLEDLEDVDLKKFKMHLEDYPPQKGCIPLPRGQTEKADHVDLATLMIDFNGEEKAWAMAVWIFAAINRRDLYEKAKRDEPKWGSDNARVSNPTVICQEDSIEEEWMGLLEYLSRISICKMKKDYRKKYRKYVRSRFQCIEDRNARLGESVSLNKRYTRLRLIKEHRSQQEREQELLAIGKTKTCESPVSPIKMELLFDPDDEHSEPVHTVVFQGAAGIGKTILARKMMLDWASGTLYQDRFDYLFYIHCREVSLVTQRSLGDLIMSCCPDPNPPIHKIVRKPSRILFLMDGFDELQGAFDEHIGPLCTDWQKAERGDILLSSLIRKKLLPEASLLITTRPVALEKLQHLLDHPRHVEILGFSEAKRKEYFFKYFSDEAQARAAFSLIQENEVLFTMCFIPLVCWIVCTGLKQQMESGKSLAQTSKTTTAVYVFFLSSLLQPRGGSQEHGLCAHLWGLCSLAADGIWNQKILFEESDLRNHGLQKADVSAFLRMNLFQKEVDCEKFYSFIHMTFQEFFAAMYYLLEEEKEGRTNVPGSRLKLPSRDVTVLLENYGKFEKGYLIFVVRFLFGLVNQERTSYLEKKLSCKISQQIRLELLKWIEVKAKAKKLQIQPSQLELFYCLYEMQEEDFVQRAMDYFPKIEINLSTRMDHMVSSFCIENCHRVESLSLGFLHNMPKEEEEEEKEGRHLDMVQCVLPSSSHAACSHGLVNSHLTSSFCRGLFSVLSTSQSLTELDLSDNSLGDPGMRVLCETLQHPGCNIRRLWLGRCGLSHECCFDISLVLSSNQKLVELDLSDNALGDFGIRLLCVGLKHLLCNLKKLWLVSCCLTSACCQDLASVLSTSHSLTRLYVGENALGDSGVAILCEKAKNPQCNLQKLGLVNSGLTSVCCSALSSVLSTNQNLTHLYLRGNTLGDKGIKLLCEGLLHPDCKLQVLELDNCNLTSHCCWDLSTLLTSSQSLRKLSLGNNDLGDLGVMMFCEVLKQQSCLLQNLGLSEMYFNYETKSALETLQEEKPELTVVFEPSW

SMILES | pIC50
Cc1cc(C)c(-c2ccc(N3CCOC[C@H]3CN)nn2)c(O)c1 [Example 123, 2-[6-[(3R)-3-(aminomethyl)morpholin-4-yl]pyridazin-3-yl]-3,5-dimethyl-phenol; 2,2,2-trifluoroacetic acid] | 5.69
Cc1cc(C)c(-c2ccc(N3CCOC[C@@H]3CN)nn2)c(O)c1 [Example 124, 2-[6-[(3S)-3-(aminomethyl)morpholin-4-yl]pyridazin-3-yl]-3,5-dimethyl-phenol] | 5.98
Cc1cc(C)c(-c2ccc(N3C[C@H]4NCCO[C@@H]4C3)nn2)c(O)c1 [Example 125, 2-[6-[(4aR,7aR)-3,4,4a,5,7,7a-hexahydro-2H-pyrrolo[3,4-b][1,4]oxazin-6-yl]pyridazin-3-yl]-3,5-dimethylphenol] | 5.88
Cc1cc(C)c(-c2ccc(N3CCC[C@@H](N(C)C)C3)nn2)c(O)c1 [Example 148, 2-[6-[(3R)-3-(dimethylamino)-1-piperidyl]pyridazin-3-yl]-3,5-dimethyl-phenol] | 6.04
Cc1cc(C)c(O)c(-c2ccc(N3CCO[C@H](CO)C3)nn2)c1 [Example 152, 2-[6-[(2S)-2-(hydroxymethyl)morpholin-4-yl]pyridazin-3-yl]-4,6-dimethylphenol] | 5.22
CNC(=O)[C@@H]1CN(c2ccc(-c3c(C)cc(C)cc3O)nn2)CCO1 [Example 166, (2S)-4-[6-(2-hydroxy-4,6-dimethylphenyl)pyridazin-3-yl]-N-methylmorpholine-2-carboxamide] | 5.48
CCN1CCO[C@@H]2CN(c3ccc(-c4c(C)cc(C)cc4O)nn3)C[C@H]21 [Example 168, 2-[6-[(4aR,7aR)-4-ethyl-2,3,4a,5,7,7a-hexahydropyrrolo[3,4-b][1,4]oxazin-6-yl]pyridazin-3-yl]-3,5-dimethylphenol] | 5.47
Cc1cc(C)c(-c2ccc(N3C[C@H](O)CO3)nn2)c(O)c1 [Example 179, (4S)-2-[6-(2-hydroxy-4,6-dimethyl-phenyl)pyridazin-3-yl]isoxazolidin-4-ol] | 6.05
Cc1cc(C)c(-c2ccc(N3CCO[C@H](C(N)=O)C3)nn2)c(O)c1 [Example 181, (2S)-4-[6-(2-hydroxy-4,6-dimethylphenyl)pyridazin-3-yl]morpholine-2-carboxamide] | 5.86
CNC(=O)[C@H]1CN(c2ccc(-c3c(C)cc(C)cc3O)nn2)CCO1 [Example 182, (2R)-4-[6-(2-hydroxy-4,6-dimethylphenyl)pyridazin-3-yl]-N-methylmorpholine-2-carboxamide] | 5.78
Cc1cc(C)c(-c2ccc(N3C[C@@H]4NCCO[C@H]4C3)nn2)c(O)c1 [Example 185, 2-[6-[(4aS,7aS)-3,4,4a,5,7,7a-hexahydro-2H-pyrrolo[3,4-b][1,4]oxazin-6-yl]pyridazin-3-yl]-3,5-dimethylphenol] | 5.49
Cc1cc(C)c(-c2nnc(N3CCO[C@H](CO)C3)cc2CO)c(O)c1 [Example 186, 2-[4-(hydroxymethyl)-6-[(2S)-2-(hydroxymethyl)morpholin-4-yl]pyridazin-3-yl]-3,5-dimethyl-phenol] | 5.98
Cc1ccc(O)c(-c2ccc(N3CCO[C@H](CO)C3)nn2)c1C [Example 191, 2-[6-[(2S)-2-(hydroxymethyl)morpholin-4-yl]pyridazin-3-yl]-3,4-dimethylphenol] | 5.95
CCN1CCOCC2(C1)CN(c1ccc(-c3c(C)cc(C)cc3O)nn1)CCO2 (stereo not shown) [Example 208, 2-[6-(8-ethyl-1,11-dioxa-4,8-diazaspiro[5.6]dodecan-4-yl)pyridazin-3-yl]-3,5-dimethylphenol] | 6.01
Cc1cc(C)c(-c2ccc(N3CCOc4cnccc43)nn2)c(O)c1 [Example 215, 2-[6-(2,3-dihydropyrido[3,4-b][1,4]oxazin-1-yl)pyridazin-3-yl]-3,5-dimethyl-phenol] | 5.84
CCN1CCN(c2ccc(-c3c(C)cc(C)cc3O)nn2)CC12CCOC2 (stereo not shown) [Example 227, 2-[6-(6-ethyl-2-oxa-6,9-diazaspiro[4.5]decan-9-yl)pyridazin-3-yl]-3,5-dimethylphenol] | 5.92
Cc1cc(C)c(-c2ccc(N3CCCc4c3ccnc4O)nn2)c(O)c1 [Example 242, 1-[6-(2-hydroxy-4,6-dimethyl-phenyl)pyridazin-3-yl]-3,4-dihydro-2H-1,6-naphthyridin-5-ol] | 5.67
Cc1cc(C)c(-c2ccc(N3CCc4cccc(O)c43)nn2)c(O)c1 [Example 253, 1-[6-(2-hydroxy-4,6-dimethyl-phenyl)pyridazin-3-yl]indolin-7-ol] | 5.17
Cc1cc(C)c(-c2ccc(N3CCO[C@H](CS)C3)nn2)c(O)c1 [Example 303, 3,5-dimethyl-2-[6-[(2S)-2-(sulfanylmethyl)morpholin-4-yl]pyridazin-3-yl]phenol] | 5.41
Cc1cc(C)c(-c2ccc(N3CCO[C@@H](CS)C3)nn2)c(O)c1 [Example 305, 3,5-dimethyl-2-[6-[(2R)-2-(sulfanylmethyl)morpholin-4-yl]pyridazin-3-yl]phenol] | 5.55
Cc1ccc(-c2nnc(N3CCO[C@H]4CCN(C)C[C@H]43)cc2C(F)F)c(O)c1 [Example 306, 2-[6-[(4aR,8aS)-6-methyl-3,4a,5,7,8,8a-hexahydro-2H-pyrido[4,3-b][1,4]oxazin-4-yl]-4-(difluoromethyl)pyridazin-3-yl]-5-methyl-phenol] | 5.82
CCN1CCOC2(COCCN(c3ccc(-c4c(C)cc(C)cc4O)nn3)C2)C1 (stereo not shown) [Example 317, 2-[6-(4-ethyl-1,11-dioxa-4,8-diazaspiro[5.6]dodecan-8-yl)pyridazin-3-yl]-3,5-dimethyl-phenol] | 5.52
Cc1cc(C)c(-c2ccc(N3CCO[C@@H]4CCN(CC(F)(F)F)C[C@@H]43)nn2)c(O)c1 [Example 355, 2-[6-[(4aS,8aR)-6-(2,2,2-trifluoroethyl)-3,4a,5,7,8,8a-hexahydro-2H-pyrido[4,3-b][1,4]oxazin-4-yl]pyridazin-3-yl]-3,5-dimethyl-phenol] | 5.93

Now those with a higher pIC50, led by results:

pIC50 | SMILES
6.11 | Cc1cc(C)c(-c2ccc(N3CCC[C@H](N(C)C)C3)nn2)c(O)c1 [Example 128, 2-[6-[(3S)-3-(dimethylamino)-1-piperidyl]pyridazin-3-yl]-3,5-dimethyl-phenol]
6.16 | Cc1cc(C)c(-c2ccc(N3CCO[C@@H](C(N)=O)C3)nn2)c(O)c1 [Example 183, (2R)-4-[6-(2-hydroxy-4,6-dimethylphenyl)pyridazin-3-yl]morpholine-2-carboxamide]
6.18 | Cc1cc(C)c(-c2ccc(N3CCO[C@@H](C(=O)N(C)C)C3)nn2)c(O)c1 [Example 184, (2R)-4-[6-(2-hydroxy-4,6-dimethylphenyl)pyridazin-3-yl]-N,N-dimethylmorpholine-2-carboxamide]
6.82 | Cc1cc(C(F)(F)F)cc(O)c1-c1ccc(N2CC[C@H](O)CC2=O)nn1 [Example 286, (4S)-4-hydroxy-1-[6-[2-hydroxy-6-methyl-4-(trifluoromethyl)phenyl]pyridazin-3-yl]piperidin-2-one]
6.58 | Cc1cc(C(F)(F)F)cc(O)c1-c1ccc(N2CC[C@@H](CO)CC2=O)nn1 [Example 292, (4R)-4-(hydroxymethyl)-1-[6-[2-hydroxy-6-methyl-4-(trifluoromethyl)phenyl]pyridazin-3-yl]piperidin-2-one]
6.60 | Cc1cc(Cl)cc(O)c1-c1ccc(N2CCO[C@@H]3CCNC[C@@H]32)nn1 [Example 309, 2-[6-[(4aS,8aR)-2,3,4a,5,6,7,8,8a-octahydropyrido[4,3-b][1,4]oxazin-4-yl]pyridazin-3-yl]-5-chloro-3-methyl-phenol]
6.30 | Cc1cc(C)c(-c2ccc(N3CCO[C@H]4CCN(C)C[C@H]43)nn2)c(O)c1 [Example 310, 2-[6-[(4aR,8aS)-6-methyl-3,4a,5,7,8,8a-hexahydro-2H-pyrido[4,3-b][1,4]oxazin-4-yl]pyridazin-3-yl]-3,5-dimethyl-phenol]
6.29 | Cc1cc(C)c(-c2ccc(N3CCO[C@@H]4CCNC[C@@H]43)nn2)c(O)c1 [Example 315, 2-[6-[(4aS,8aR)-2,3,4a,5,6,7,8,8a-octahydropyrido[4,3-b][1,4]oxazin-4-yl]pyridazin-3-yl]-3,5-dimethyl-phenol]
6.54 | Cc1cc(C(F)(F)F)cc(O)c1-c1ccc(N2CC[C@@H](O)CC2=O)nn1 [Example 316, (4R)-4-hydroxy-1-[6-[2-hydroxy-6-methyl-4-(trifluoromethyl)phenyl]pyridazin-3-yl]piperidin-2-one]
6.88 | Cc1cc(Cl)cc(O)c1-c1ccc(N2CCO[C@H](CF)C2)nn1 [Example 339, 5-chloro-2-[6-[(2S)-2-(fluoromethyl)morpholin-4-yl]pyridazin-3-yl]-3-methyl-phenol]
6.65 | CCN1CC[C@H]2OCCN(c3ccc(-c4c(C)cc(C(F)(F)F)cc4O)nn3)[C@@H]2C1 [Example 344, 2-[6-[(4aR,8aR)-6-ethyl-3,4a,5,7,8,8a-hexahydro-2H-pyrido[4,3-b][1,4]oxazin-4-yl]pyridazin-3-yl]-3-methyl-5-(trifluoromethyl)phenol]
6.90 | OC[C@@H]1CN(c2cc(C(F)F)c(-c3ccc4c(c3O)CCC4)nn2)CCO1 [Example 345, 5-[4-(difluoromethyl)-6-[(2S)-2-(hydroxymethyl)morpholin-4-yl]pyridazin-3-yl]indan-4-ol]
6.78 | CN1CC[C@H]2OCCN(c3cc(C(F)F)c(-c4cccc(F)c4O)nn3)[C@H]2C1 [Example 351, 2-[6-[(4aS,8aR)-6-methyl-3,4a,5,7,8,8a-hexahydro-2H-pyrido[4,3-b][1,4]oxazin-4-yl]-4-(difluoromethyl)pyridazin-3-yl]-6-fluoro-phenol]
6.38 | Cc1cc(C(F)(F)F)cc(O)c1-c1ccc(N2CCOc3c[nH]nc32)nn1 [Example 360, 2-[6-(5,6-dihydro-2H-pyrazolo[4,3-b][1,4]oxazin-7-yl)pyridazin-3-yl]-3-methyl-5-(trifluoromethyl)phenol]
